{"source": "PubChem BioAssay (NCI)", "note": "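Step 1: Grow cells in 96-well plates. Step 2: Expose to compound for 48 hours at 5 concentrations. Step 3: Interpolate endpoints linearly; if unreached, use highest concentration. Here, GI50 denotes the concentration required for 50% inhibition of growth. The concentration for full growth arrest is given as TGI.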", "data": [{"system": "MDA-MB-468 breast", "test": "inhibition of tumour cell growth, NCI panel, 48 h", "units": {"GI50": "µM", "TGI": "µM"}, "values": [{"smiles": "CC(NCCC(c1ccccc1)c1ccccc1)c1ccccc1", "note": "(stereo not drawn)", "GI50": 1.3, "TGI": 2.64}, {"smiles": "O=C(NC[C@H](O)CN1CCc2ccccc2C1)c1cc(NC2COC2)ncn1", "GI50": 4.25, "TGI": 24.5}, {"smiles": "Cc1cc(N[C@@H]2CCC[C@H](Nc3ccnc4cc(Cl)ccc34)C2)nc(N2CCCCCC2)n1", "GI50": 1.4, "TGI": 3.11}, {"smiles": "CN1CCN(c2ccc(Nc3cc(-c4cccc(-n5ccc6cc(C7CC7)cc(F)c6c5=O)c4CO)cn(C)c3=O)nc2)CC1", "GI50": 3.15, "TGI": 17.1}, {"smiles": "Nc1ncn([C@@H]2O[C@H](CO)[C@@H](O)[C@H]2O)c(=O)n1", "GI50": 1.03, "TGI": 5.34}, {"smiles": "O=C(Cc1ccc(F)c(Cl)c1)Nc1cc(C2(C(F)(F)F)CC2)nn1CC1CCCCC1", "GI50": 2.68, "TGI": 9.28}, {"smiles": "COC(=O)[C@]12CC[C@@H](C)[C@H](C)[C@@H]1C1=CC[C@@H]3[C@@]4(C)C[C@@H](O)[C@H](O)[C@@](C)(CO)C4=CC[C@@]3(C)[C@]1(C)CC2", "GI50": 14.2, "TGI": 29.7}, {"smiles": "CN(C)CC[C@H](CSc1ccccc1)Nc1ccc(S(=O)(=O)NC(=O)c2ccc(N3CCN(Cc4ccccc4-c4ccc(Cl)cc4)CC3)cc2)cc1[N+](=O)[O-]", "GI50": 1.38, "TGI": 3.65}, {"smiles": "CC(=O)ON1CCCC(P(=O)(OCCSC(=O)C(C)(C)C)OCCSC(=O)C(C)(C)C)C1=O", "note": "(stereo not drawn)", "GI50": 2.67, "TGI": 23.6}, {"smiles": "N=c1c2c(-c3ccccc3)c(-c3ccccc3)n(Cc3ccccc3)c2ncn1C1CCC(O)CC1", "note": "(stereo not drawn)", "GI50": 0.631, "TGI": 3.23}, {"smiles": "COc1ccc(-c2nnc3n(C)c(=O)c4ccccc4n23)cc1N", "GI50": 2.33, "TGI": "> 100"}, {"smiles": "NC(=O)c1c(NC(=O)c2ccccc2)sc2c1CCC(=O)C2", "GI50": 2.46, "TGI": 6.59}, {"smiles": "COc1cnc2c(c1)C(=O)c1c-2n(CCCN2CCOCC2)c(=O)c2cc(Cl)ccc12", "GI50": 0.183, "TGI": 0.544}, {"smiles": "CNCCOC(=O)/C=C1\\CC[C@H]2[C@@H]([C@@H](O)C(=O)[C@@H]3[C@]2(C)CC[C@H](O)[C@]3(C)C(=O)OC)[C@H]1C", "GI50": 1.44, "TGI": 3.69}, {"smiles": "N#Cc1nn(-c2cc(=O)[nH]c3ccc(Cl)cc23)c(N)c1C#N", "GI50": "> 100", "TGI": "> 100"}, {"smiles": "CN(C)CCCNc1c2ccc(Cl)cc2nc2c1oc1ccc(Cl)cc12", "GI50": 8.02, "TGI": 21.8}, {"smiles": "O=[N+]([O-])c1ccc(-c2nnc(SCc3ccc(O)c4ncccc34)n2-c2ccccc2)cc1", "GI50": 0.577, "TGI": 4.46}, {"smiles": "Cc1nc(Nc2cccnc2)sc1C(=O)/C=C/c1ccc(F)cc1", "GI50": 3.22, "TGI": 11.1}, {"smiles": "CC(C)(/C=C(\\C#N)C(=O)N1CCC[C@@H](n2nc(-c3ccc(Oc4ccccc4)cc3F)c3c(N)ncnc32)C1)N1CCN(C2COC2)CC1", "GI50": 3.63, "TGI": 14.9}, {"smiles": "CCOC(=O)N[C@H]1CCc2cc(OC)c(OC)c(OC)c2-c2ccc(SC)c(=O)cc21", "GI50": "< 0.01", "TGI": "> 21.3"}, {"smiles": "COc1ccc2nc3ccccc3c(NCc3ccc(F)cc3)c2c1", "GI50": 1.07, "TGI": 2.93}, {"smiles": "CCc1cc(OC(=O)N2CCC(N3CCCCC3)CC2)ccc1Nc1cc(-c2ccc(-n3cccn3)cc2)[nH]n1", "GI50": 1.74, "TGI": 3.65}, {"smiles": "C[C@@H]1C[C@@H]([C@@H](CC2CC(=O)NC(=O)C2)OC(=O)CC(=O)c2ccccc2)C(=O)[C@@H](C)C1", "GI50": 1.17, "TGI": "> 100"}, {"smiles": "COC(=O)c1c2c(c(C)[n+]([O-])c1C)C(=O)C=C(NCc1ccc(F)cc1)C2=O", "GI50": 0.284, "TGI": 0.978}, {"smiles": "Nc1ncc(-c2ccc3ncnc(Nc4ccc(F)c(Cl)c4)c3c2)cn1", "GI50": 0.229, "TGI": 0.833}, {"smiles": "CCn1c(O)c(/C=N/NC(=O)C(C)c2ccc(CC(C)C)cc2)sc1=S", "note": "(stereo not drawn)", "GI50": 0.378, "TGI": 12}, {"smiles": "CCOC(=O)Nc1cc2c(c(N)n1)N=C(c1ccccc1)CO2", "GI50": 0.0427, "TGI": 0.394}, {"smiles": "O=C(/C=C/c1ccc[nH]1)c1ccc(-n2ccc(C(F)(F)F)n2)cc1", "GI50": "> 54.6", "TGI": "> 100"}, {"smiles": "COc1cc(Cl)cc(-c2nn(-c3cccc(NC(=O)c4ccc(N5CCOCC5)c(C(F)(F)F)c4)c3)cc2-c2ccncc2)c1", "GI50": 12.1, "TGI": "> 100"}]}]}
